US9663525B2, “Pyrazolopyrimidinyl inhibitors of ubiquitin-activating enzyme” (Millennium Pharmaceuticals, Inc., priority 2012, dated 2017)

Each compound was assayed against recombinant human UAE (Homo sapiens (Human), UniProt P22314) (assay: Ubiquitin Activating Enzyme (UAE) HTRF assay, human UAE). Details: not given.
Sequence of recombinant human UAE (P22314 whole entry): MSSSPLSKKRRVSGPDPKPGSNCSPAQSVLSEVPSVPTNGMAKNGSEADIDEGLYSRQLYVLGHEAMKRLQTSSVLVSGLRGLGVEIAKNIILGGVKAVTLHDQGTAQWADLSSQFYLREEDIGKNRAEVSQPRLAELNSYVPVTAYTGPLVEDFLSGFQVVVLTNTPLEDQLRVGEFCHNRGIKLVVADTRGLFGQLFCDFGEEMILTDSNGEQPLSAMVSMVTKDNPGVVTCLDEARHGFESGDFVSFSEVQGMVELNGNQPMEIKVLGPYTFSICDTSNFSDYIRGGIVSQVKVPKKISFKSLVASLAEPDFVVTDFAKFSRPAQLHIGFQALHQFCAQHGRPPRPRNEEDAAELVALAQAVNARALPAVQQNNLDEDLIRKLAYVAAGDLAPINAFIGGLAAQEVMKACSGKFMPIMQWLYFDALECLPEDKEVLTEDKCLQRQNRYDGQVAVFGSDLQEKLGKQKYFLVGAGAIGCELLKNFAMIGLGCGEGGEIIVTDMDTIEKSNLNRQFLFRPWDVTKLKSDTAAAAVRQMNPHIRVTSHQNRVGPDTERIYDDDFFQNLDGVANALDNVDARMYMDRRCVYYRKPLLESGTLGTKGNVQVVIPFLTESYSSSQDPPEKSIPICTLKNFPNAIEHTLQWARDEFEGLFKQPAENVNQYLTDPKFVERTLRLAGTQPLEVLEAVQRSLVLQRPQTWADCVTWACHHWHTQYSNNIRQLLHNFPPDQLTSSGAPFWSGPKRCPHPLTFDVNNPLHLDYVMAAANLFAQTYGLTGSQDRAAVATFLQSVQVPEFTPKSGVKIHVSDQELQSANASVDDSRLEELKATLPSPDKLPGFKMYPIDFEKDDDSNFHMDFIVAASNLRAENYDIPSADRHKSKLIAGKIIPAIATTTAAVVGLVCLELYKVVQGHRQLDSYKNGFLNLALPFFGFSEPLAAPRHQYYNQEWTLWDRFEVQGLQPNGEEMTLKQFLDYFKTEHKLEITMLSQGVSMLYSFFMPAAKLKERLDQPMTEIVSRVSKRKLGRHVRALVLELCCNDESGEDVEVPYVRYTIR

Compound | IC50 [nM]
NS(=O)(=O)OC[C@H]1C[C@@H](Nc2cc(Cl)nc3cc(-c4ccccc4)nn23)[C@H](O)[C@@H]1O (relative stereo) [Compound I-006, (rac)-{(1R,2R,3S,4R)-4-[(5-chloro-2-phenylpyrazolo[1,5-a]pyrimidin-7-yl)amino]-2,3-dihydroxycyclopentyl}methyl rel-sulfamate] | 100 to 1000
NS(=O)(=O)OC[C@H]1C[C@@H](Nc2ccnc3cc(-c4cccc(OC(F)F)c4)nn23)[C@H](O)[C@@H]1O (racemic) [Compound I-050, (rac)-((1R,2R,3S,4R)-4-((2-(3-(Difluoromethoxy)phenyl)pyrazolo[1,5-a-]pyrimidin-7-yl)amino)-2,3-dihydroxycyclopentyl)methyl rel-sulfamate] | < 10
NS(=O)(=O)OC[C@H]1C[C@@H](Nc2ccnc3cc(-c4csc5ccc(Cl)cc45)nn23)[C@H](O)[C@@H]1O (racemic) [Compound I-071, (rac)-((1R,2R,3S,4R)-4-(2-(5-chlorobenzo[b]thiophen-3-yl)pyrazolo[1,5-a]pyrimidin-7-ylamino)-2,3-dihydroxycyclopentyl)methyl rel-sulfamate] | < 10
Cc1cnc2cc(-c3ccccc3)nn2c1N[C@@H]1C[C@H](COS(N)(=O)=O)[C@@H](O)[C@H]1O (relative stereo) [Compound I-089, (rac)-{(1R,2R,3S,4R)-2,3-dihydroxy-4-[(6-methyl-2-phenylpyrazolo[1,5-a]pyrimidin-7-yl)amino]cyclopentyl}methyl rel-sulfamate] | 100 to 1000
NS(=O)(=O)OC[C@H]1C[C@@H](Nc2ccnc3cc(-c4cccc5sccc45)nn23)[C@H](O)[C@@H]1O (racemic) [Compound I-061, (rac)-((1R,2R,3S,4R)-4-((2-(Benzo[b]thiophen-4-yl)pyrazolo[1,5-a]pyrimidin-7-yl)amino)-2,3-dihydroxycyclopentyl)methyl rel-sulfamate] | < 10
NS(=O)(=O)OC[C@H]1C[C@@H](Nc2ccnc3cc(-c4cc(Cl)ccc4OC(F)(F)F)nn23)[C@H](O)[C@@H]1O (racemic) [Compound I-057, (rac)-((1R,2R,3S,4R)-4-(2-(5-chloro-2-(trifluoromethoxy)phenyl)pyrazolo[1,5-a]pyrimidin-7-ylamino)-2,3-dihydroxycyclopentyl)methyl rel-sulfamate] | < 10
CCc1ccc2sc(-c3cc4nccc(N[C@@H]5C[C@H](COS(N)(=O)=O)[C@@H](O)[C@H]5O)n4n3)cc2c1 (racemic) [Compound I-095, (rac)-((1R,2R,3S,4R)-4-(2-(5-ethylbenzo[b]thiophen-2-yl)pyrazolo[1,5-a]pyrimidin-7-ylamino)-2,3-dihydroxycyclopentyl)methyl rel-sulfamate] | 10 to 100
COc1ccc(Cl)cc1-c1cc2nccc(N[C@@H]3C[C@H](COS(N)(=O)=O)[C@@H](O)[C@H]3O)n2n1 (racemic) [Compound I-020, (rac)-((1R,2R,3S,4R)-4-(2-(5-chloro-2-methoxyphenyl)pyrazolo[1,5-a]pyrimidin-7-ylamino)-2,3-dihydroxycyclopentyl)methyl rel-sulfamate] | < 10
NS(=O)(=O)OC[C@H]1C[C@@H](Nc2ccnc3cc(-c4csc5ccc(F)cc45)nn23)[C@H](O)[C@@H]1O (racemic) [Compound I-081, (rac)-((1R,2R,3S,4R)-4-(2-(5-fluorobenzo[b]thiophen-3-yl)pyrazolo[1,5-a]pyrimidin-7-ylamino)-2,3-dihydroxycyclopentyl)methyl rel-sulfamate] | < 10
NS(=O)(=O)OC[C@H]1C[C@@H](Nc2ccnc3cc(-c4cccc(N5CCCC5=O)c4)nn23)[C@H](O)[C@@H]1O (racemic) [Compound I-087, (rac)-((1R,2R,3S,4R)-2,3-dihydroxy-4-(2-(3-(2-oxopyrrolidin-1-yl)phenyl)pyrazolo[1,5-a]pyrimidin-7-ylamino)cyclopentyl)methyl rel-sulfamate] | < 10
NS(=O)(=O)OC[C@H]1C[C@@H](Nc2ccnc3cc(-c4cccc(Br)c4)nn23)[C@H](O)[C@@H]1O (racemic) [Compound I-028, (rac)-((1R,2R,3S,4R)-4-((2-(3-Bromophenyl)pyrazolo[1,5-a]pyrimidin-7-yl)amino)-2,3-dihydroxycyclopentyl)methyl rel-sulfamate] | < 10
COc1ccc(C(F)(F)F)cc1-c1cc2nccc(N[C@@H]3C[C@H](COS(N)(=O)=O)[C@@H](O)[C@H]3O)n2n1 (racemic) [Compound I-065, (rac)-((1R,2R,3S,4R)-2,3-Dihydroxy-4-((2-(2-methoxy-5-(trifluoromethyl)phenyl)-pyrazolo[1,5-a]pyrimidin-7-yl)amino)cyclopentyl)methyl rel-sulfamate] | < 10
C#Cc1cccc(-c2cc3nccc(N[C@@H]4C[C@H](COS(N)(=O)=O)[C@@H](O)[C@H]4O)n3n2)c1 (racemic) [Compound I-083, (rac)-[(1R,2R,3S,4R)-4-{[2-(3-ethynylphenyl)pyrazolo[1,5-a]pyrimidin-7-yl]amino}-2,3-dihydroxycyclopentyl]methyl rel-sulfamate] | < 10
NS(=O)(=O)OC[C@H]1C[C@@H](Nc2ccnc3cc(-c4ccc5[nH]ccc5c4)nn23)[C@H](O)[C@@H]1O (racemic) [Compound I-074, (rac)-[(1R,2R,3S,4R)-2,3-dihydroxy-4-{[2-(1H-indol-5-yl)pyrazolo[1,5-a]pyrimidin-7-yl]amino}cyclopentyl]methyl rel-sulfamate] | 10 to 100
NS(=O)(=O)OC[C@H]1C[C@@H](Nc2ccnc3cc(-c4cnc5ccccc5c4)nn23)[C@H](O)[C@@H]1O (racemic) [Compound I-025, (rac)-((1R,2R,3S,4R)-2,3-dihydroxy-4-(2-(quinolin-3-yl)pyrazolo[1,5-a]pyrimidin-7-ylamino)cyclopentyl)methyl rel-sulfamate] | 10 to 100
NS(=O)(=O)OC[C@H]1C[C@@H](Nc2ccnc3cc(-c4ccc5c(c4)[nH]c4ccccc45)nn23)[C@H](O)[C@@H]1O (racemic) [Compound I-062, (rac)-[(1R,2R,3S,4R)-4-{[2-(9H-carbazol-2-yl)pyrazolo[1,5-a]pyrimidin-7-yl]amino}-2,3-dihydroxycyclopentyl]methyl rel-sulfamate] | < 10
NS(=O)(=O)OC[C@H]1C[C@@H](Nc2ccnc3cc(-c4ccc5[nH]c6ccccc6c5c4)nn23)[C@H](O)[C@@H]1O (racemic) [Compound I-037, (rac)-[(1R,2R,3S,4R)-4-{[2-(9H-carbazol-3-yl)pyrazolo[1,5-a]pyrimidin-7-yl]amino}-2,3-dihydroxycyclopentyl]methyl rel-sulfamate] | < 10
CC(C)(C)c1cccc(-c2cc3nccc(N[C@@H]4C[C@H](COS(N)(=O)=O)[C@@H](O)[C@H]4O)n3n2)c1 (racemic) [Compound I-015, (rac)-((1R,2R,3S,4R)-4-((2-(3-(tert-Butyl)phenyl)pyrazolo[1,5-a]pyrimidin-7-yl)amino)-2,3-dihydroxycyclopentyl)methyl rel-sulfamate] | < 10
NS(=O)(=O)OC[C@H]1C[C@@H](Nc2ccnc3cc(-c4ccc(C(F)(F)F)c5cccnc45)nn23)[C@H](O)[C@@H]1O (racemic) [Compound I-033, (rac)-((1R,2R,3S,4R)-2,3-dihydroxy-4-(2-(5-(trifluoromethyl)quinolin-8-yl)pyrazolo[1,5-a]pyrimidin-7-ylamino)cyclopentyl)methyl rel-sulfamate] | < 10
NS(=O)(=O)OC[C@H]1C[C@@H](Nc2ccnc3cc(-c4cccc(N5CCCCC5)c4)nn23)[C@H](O)[C@@H]1O (racemic) [Compound I-077, (rac)-((1R,2R,3S,4R)-2,3-dihydroxy-4-(2-(3-(piperidin-1-yl)phenyl)pyrazolo[1,5-a]pyrimidin-7-ylamino)cyclopentyl)methyl rel-sulfamate] | < 10
NS(=O)(=O)OC[C@H]1C[C@@H](Nc2ccnc3cc(-c4csc5ccccc45)nn23)[C@H](O)[C@@H]1O (racemic) [Compound I-022, (rac)-((1R,2R,3S,4R)-4-(2-(benzo[b]thiophen-3-yl)pyrazolo[1,5-a]pyrimidin-7-ylamino)-2,3-dihydroxycyclopentyl)methyl rel-sulfamate] | < 10
NS(=O)(=O)OC[C@H]1C[C@@H](Nc2ccnc3cc(-c4cc5ccccc5o4)nn23)[C@H](O)[C@@H]1O (racemic) [Compound I-086, (rac)-((1R,2R,3S,4R)-4-(2-(benzofuran-2-yl)pyrazolo[1,5-a]pyrimidin-7-ylamino)-2,3-dihydroxycyclopentyl)methyl rel-sulfamate] | < 10
NS(=O)(=O)OC[C@H]1C[C@@H](Nc2ccnc3cc(-c4cccc(C(F)(F)F)n4)nn23)[C@H](O)[C@@H]1O (racemic) [Compound I-064, (rac)-((1R,2R,3S,4R)-2,3-dihydroxy-4-(2-(6-(trifluoromethyl)pyridin-2-yl)pyrazolo[1,5-a]pyrimidin-7-ylamino)cyclopentyl)methyl rel-sulfamate] | 10 to 100

Same assay, conditions: 0.111 μM compound; human UAE

Compound | % inhibition @0.111 μM [%]
COc1ccc(C(C)(C)C)cc1-c1cc2nccc(N[C@@H]3C[C@H](COS(N)(=O)=O)[C@@H](O)[C@H]3O)n2n1 (racemic) [Compound I-063, (rac)-((1R,2R,3S,4R)-4-{[2-(5-tert-butyl-2-methoxyphenyl)pyrazolo[1,5-a]pyrimidin-7-yl]amino}-2,3-dihydroxycyclopentyl)methyl rel-sulfamate] | 100

Same assay, conditions: human UAE

Compound | IC50 [nM]
NS(=O)(=O)OC[C@H]1C[C@@H](Nc2ccnc3cc(-c4cccc5c4oc4ccccc45)nn23)[C@H](O)[C@@H]1O [Compound I-103, (s.e.)-((1R,2R,3S,4R)-4-(2-(dibenzo[b,d]furan-4-yl)pyrazolo[1,5-a]pyrimidin-7-ylamino)-2,3-dihydroxycyclopentyl)methyl sulfamate] | < 10
CN(C)c1ccc(-c2cc3nccc(N[C@@H]4C[C@H](COS(N)(=O)=O)[C@@H](O)[C@H]4O)n3n2)c2ccccc12 [Compound I-107, (s.e.)-((1R,2R,3S,4R)-4-(2-(4-(dimethylamino)naphthalen-1-yl)pyrazolo[1,5-a]pyrimidin-7-ylamino)-2,3-dihydroxycyclopentyl)methyl sulfamate] | < 10
